Results: PubChem BioAssay (NCI)
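These data come from cells grown in 96-well plates and exposed to compound for 48 hours at five concentrations. TGI denotes the concentration required for complete inhibition of growth.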

Legend:
Assay in all cases: growth of human tumour cells (NCI), 48 h
HCC-2998 colon = tested on: HCC-2998 colon
HCT-116 colon = tested on: HCT-116 colon
HL-60(TB) leukemia = tested on: HL-60(TB) leukemia
HOP-92 NSCLC = tested on: HOP-92 NSCLC
IGROV1 ovarian = tested on: IGROV1 ovarian
LOX IMVI melanoma = tested on: LOX IMVI melanoma
MCF7 breast = tested on: MCF7 breast
RXF 393 renal = tested on: RXF 393 renal
SNB-75 CNS = tested on: SNB-75 CNS
SW-620 colon = tested on: SW-620 colon
A498 renal = tested on: A498 renal
BT-549 breast = tested on: BT-549 breast
DU-145 prostate = tested on: DU-145 prostate
SK-MEL-2 melanoma = tested on: SK-MEL-2 melanoma
TK-10 renal = tested on: TK-10 renal
HS 578T breast = tested on: HS 578T breast
K-562 leukemia = tested on: K-562 leukemia

Nc1ccn(C2OC(CO)C(O)C2O)c(=O)c1 (centres undefined)
TGI (HCC-2998 colon): > 625 µM | TGI (HCT-116 colon): > 625 µM | TGI (HL-60(TB) leukemia): > 625 µM | TGI (HOP-92 NSCLC): > 625 µM | TGI (IGROV1 ovarian): > 625 µM | TGI (LOX IMVI melanoma): 446 µM | TGI (MCF7 breast): > 625 µM | TGI (RXF 393 renal): > 625 µM | TGI (SNB-75 CNS): > 625 µM | TGI (SW-620 colon): > 625 µM

CCOc1ccc(/C=C2/C(=O)N=C(NC(C)=O)N2C)cc1
TGI (A498 renal): > 100 µM | TGI (BT-549 breast): > 100 µM | TGI (DU-145 prostate): > 100 µM | TGI (HCC-2998 colon): > 100 µM | TGI (HCT-116 colon): > 100 µM | TGI (HL-60(TB) leukemia): 71.7 µM | TGI (HOP-92 NSCLC): > 100 µM | TGI (IGROV1 ovarian): > 100 µM | TGI (LOX IMVI melanoma): > 100 µM | TGI (MCF7 breast): > 100 µM | TGI (RXF 393 renal): > 100 µM | TGI (SK-MEL-2 melanoma): > 100 µM | TGI (SNB-75 CNS): > 100 µM | TGI (SW-620 colon): > 100 µM | TGI (TK-10 renal): > 100 µM

CN(C)c1ccc(C2SCC(=O)N2c2ccc(Oc3ccc(Cl)cc3)c(Cl)c2)cc1 (centres undefined)
TGI (BT-549 breast): 48.2 µM | TGI (DU-145 prostate): 57.2 µM | TGI (HCC-2998 colon): 52.4 µM | TGI (HCT-116 colon): 32.7 µM | TGI (HL-60(TB) leukemia): 58.7 µM | TGI (HOP-92 NSCLC): 45.8 µM | TGI (HS 578T breast): 40.4 µM | TGI (IGROV1 ovarian): 92.5 µM | TGI (LOX IMVI melanoma): 39.5 µM | TGI (MCF7 breast): 89.3 µM | TGI (SK-MEL-2 melanoma): 54.1 µM | TGI (SNB-75 CNS): 50.9 µM | TGI (SW-620 colon): > 100 µM | TGI (TK-10 renal): > 100 µM

CC(C)NC(=O)OCCN=c1c2ccccc2ccc2ccccc12
TGI (BT-549 breast): > 100 µM | TGI (DU-145 prostate): > 100 µM | TGI (HCC-2998 colon): > 100 µM | TGI (HCT-116 colon): > 100 µM | TGI (HL-60(TB) leukemia): 43.9 µM | TGI (HOP-92 NSCLC): 88 µM | TGI (HS 578T breast): > 100 µM | TGI (IGROV1 ovarian): > 100 µM | TGI (K-562 leukemia): > 100 µM | TGI (LOX IMVI melanoma): > 100 µM | TGI (MCF7 breast): > 100 µM | TGI (RXF 393 renal): > 100 µM | TGI (SK-MEL-2 melanoma): 73.4 µM | TGI (SNB-75 CNS): > 100 µM | TGI (SW-620 colon): > 100 µM | TGI (TK-10 renal): > 100 µM

COc1ccc(N2C(=O)CSC2c2c[nH]c3ccccc23)cc1 (centres undefined)
TGI (BT-549 breast): > 100 µM | TGI (DU-145 prostate): > 100 µM | TGI (HCC-2998 colon): > 100 µM | TGI (HCT-116 colon): > 100 µM | TGI (HL-60(TB) leukemia): > 100 µM | TGI (HOP-92 NSCLC): > 100 µM | TGI (IGROV1 ovarian): > 100 µM | TGI (K-562 leukemia): > 100 µM | TGI (LOX IMVI melanoma): > 100 µM | TGI (MCF7 breast): > 100 µM | TGI (RXF 393 renal): > 100 µM | TGI (SNB-75 CNS): > 100 µM | TGI (SW-620 colon): > 100 µM | TGI (TK-10 renal): > 100 µM

O=C1c2ccccc2C2(c3ccc(Cl)cc3)N[C@H]3CCCC[C@@H]3N12 (some centres undefined)
TGI (A498 renal): > 100 µM | TGI (BT-549 breast): > 100 µM | TGI (DU-145 prostate): > 100 µM | TGI (HCT-116 colon): > 100 µM | TGI (HL-60(TB) leukemia): > 100 µM | TGI (HOP-92 NSCLC): > 100 µM | TGI (HS 578T breast): > 100 µM | TGI (IGROV1 ovarian): > 100 µM | TGI (K-562 leukemia): > 100 µM | TGI (LOX IMVI melanoma): > 100 µM | TGI (RXF 393 renal): > 100 µM | TGI (SNB-75 CNS): > 100 µM | TGI (SW-620 colon): > 100 µM | TGI (TK-10 renal): > 100 µM

COc1cccc(/C=N/n2c(C)n[nH]c2=O)c1
TGI (A498 renal): > 100 µM | TGI (BT-549 breast): > 100 µM | TGI (HCC-2998 colon): > 100 µM | TGI (HCT-116 colon): > 100 µM | TGI (HS 578T breast): 43.8 µM | TGI (K-562 leukemia): > 100 µM | TGI (MCF7 breast): > 100 µM | TGI (RXF 393 renal): > 100 µM | TGI (SK-MEL-2 melanoma): > 100 µM | TGI (SNB-75 CNS): > 100 µM | TGI (SW-620 colon): > 100 µM

O=C(N/N=C/c1cc(Br)cc(Br)c1[O-])c1ccccc1O.O=C(N/N=C/c1cc(Br)cc(Br)c1[O-])c1ccccc1O.[Cu+2]
TGI (HCC-2998 colon): 1.48 µM | TGI (HL-60(TB) leukemia): 0.359 µM | TGI (HOP-92 NSCLC): 1.28 µM | TGI (IGROV1 ovarian): 1.06 µM | TGI (K-562 leukemia): 0.213 µM | TGI (LOX IMVI melanoma): 1.61 µM | TGI (RXF 393 renal): 0.926 µM | TGI (SK-MEL-2 melanoma): 1.93 µM | TGI (SNB-75 CNS): 1.99 µM | TGI (TK-10 renal): 1.58 µM

COC(=O)C1CCCN1C(=O)C(Cc1cn(S(=O)(=O)c2ccc(C)cc2)cn1)NC(=O)OC(C)(C)C (centres undefined)
TGI (A498 renal): > 100 µM | TGI (BT-549 breast): > 100 µM | TGI (HCC-2998 colon): > 100 µM | TGI (HCT-116 colon): > 100 µM | TGI (HL-60(TB) leukemia): > 100 µM | TGI (HOP-92 NSCLC): > 100 µM | TGI (HS 578T breast): > 100 µM | TGI (IGROV1 ovarian): > 100 µM | TGI (K-562 leukemia): > 100 µM | TGI (MCF7 breast): > 100 µM | TGI (RXF 393 renal): > 100 µM | TGI (SK-MEL-2 melanoma): > 100 µM | TGI (SNB-75 CNS): > 100 µM | TGI (SW-620 colon): > 100 µM | TGI (TK-10 renal): > 100 µM
